Source: patent US10077232B2, “Cyclic cationic lipids and methods of use” (ARBUTUS BIOPHARMA CORPORATION, priority 2010, dated 2018)

Assay: TNS assay, apparent pKa of cationic lipids in 1:57 SNALP
Experimental: The apparent pKa of the cationic lipids present in these SNALP formulations was determined using a 2-(p-toluidinyl)-naphthalene-6-sodium sulfonate (TNS) assay. TNS is a negatively-charged indicator of membrane potential that is electrostatically attracted to positively charged membranes (see, Bailey and Cullis, Biochemistry, 33 12573-80 (1994)). Subsequent adsorption to the lipid membrane results in the immediate environment of the TNS becoming more lipophilic, removing the water molecules that otherwise quench TNS fluorescence. As a result, TNS measures the surface potential of the particle, wherein the more positive the surface potential, the greater the level of fluorescence. The surface pKa values of each SNALP formulation were determined by varying the local pH in the presence of TNS. By plotting fluorescence versus pH, the pKa of the cationic lipid can be estimated in the particle as the pH where fluorescence equals 50% of total fluorescence.

Row | pKa | pKa (apparent, surface) (1:57 SNALP with encapsulated ApoB siRNA, pH where TNS fluorescence equals 50% of total) | SMILES
1 | ~6.1 |  | CCC1CC1CC1CC1CC1CC1CCCCCCCCC(CCCCCCCCC1CC1CC1CC1CC1CC1CC)OC(=O)CCCN(C)C (stereo not drawn) [CP-LenMC3]
2 |  | ~5.85 | CCCCC/C=C\C/C=C\CCCCCCCCOCC(COCC(CCN(C)C)OCCCCCCCC/C=C\C/C=C\CCCCC)OCCCCCCCC/C=C\C/C=C\CCCCC (stereo not drawn) [Compound C2-TLinDMA, reference compound]
3 | ~6.1 |  | CCCCC/C=C\C/C=C\C/C=C\CCCCCC(CCCCC/C=C\C/C=C\C/C=C\CCCCC)OC(=O)CCCN(C)C [g-Len-MC3]
4 | ~6 |  | CCCCCC1CC1CC1CC1CC1CC1CCCCCC(CCCCCC1CC1CC1CC1CC1CC1CCCCC)OC(=O)CCCN(C)C (stereo not drawn) [CP-γ-LenMC3]
5 | ~5.8 |  | CCCCCC1CC1CC1CC1CC1CC1CCCCCOCC(CN(C)C)OCCCCCC1CC1CC1CC1CC1CC1CCCCC (stereo not drawn) [CP-γ-DLenDMA]

More lines, now with the values behind:

Row | SMILES | pKa | pKa (apparent, surface) (1:57 SNALP with encapsulated ApoB siRNA, pH where TNS fluorescence equals 50% of total)
6 | CCCCCCCCCCCC1CC1CCCCCOCC(CN(C)C)OCCCCCC1CC1CCCCCCCCCCC (stereo not drawn) [CP-DPetroDMA] | ~5.95 | 
7 | CCC1CC1CC1CC1CC1CC1CCCCCCCCOCC(CN(C)C)OCCCCCCCCC1CC1CC1CC1CC1CC1CC (stereo not drawn) [CP-DLenDMA] | ~5.85 | 
8 | CCCCCCCCC1CC1CCCCCCCCOCC(CN(C)C)OCCCCCCCCC1CC1CCCCCCCC (stereo not drawn) [CP-DODMA] | ~5.8 | 
9 | CCCCCC1CC1CC1CC1CCCCCCCCOCC(CN(C)C)OCCCCCCCCC1CC1CC1CC1CCCCC (stereo not drawn) [CP-DLinDMA] | ~5.8 | 
